Data on 9 compounds can be found in patent US9321787B2, “Carboxylic acid derivatives having an oxazolo[5,4-d]pyrimidine ring” (SANOFI, priority 2011, dated 2016).

T1 sequence (P21453 whole entry): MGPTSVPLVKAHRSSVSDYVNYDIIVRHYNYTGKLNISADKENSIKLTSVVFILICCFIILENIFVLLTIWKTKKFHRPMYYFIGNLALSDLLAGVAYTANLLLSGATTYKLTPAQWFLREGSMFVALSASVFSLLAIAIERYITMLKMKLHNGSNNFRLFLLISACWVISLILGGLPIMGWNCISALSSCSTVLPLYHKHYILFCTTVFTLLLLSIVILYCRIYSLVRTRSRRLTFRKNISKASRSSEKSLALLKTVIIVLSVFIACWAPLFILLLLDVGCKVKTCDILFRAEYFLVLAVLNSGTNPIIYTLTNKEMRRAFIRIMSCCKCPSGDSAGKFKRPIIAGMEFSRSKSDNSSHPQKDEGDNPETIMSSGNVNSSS

This test has as its target T1, human Edg-1 receptor (Homo sapiens, UniProt P21453).
T1 construct: FLAG (N); expressed in transfected cells; membrane preparation
Briefly: GTP-γ-S assay using human Edg-1 receptors (scintillation proximity assay, CHO Flp-In membrane preparation). Type of test: biochemical. The following applies: test compound at 10 μM; high control 10 μM S1P = 100% activation; membranes of CHO Flp-In cells overexpressing human Edg-1; read-out: % activation (Edg-1 receptor activation in percent of the activation by 10 μM S1P). An excerpt: A) GTP-γ-S Assay Using Human Edg-1 Receptors
In order to determine the Edg-1 receptor activation by the compounds of the invention, a GTP-γ-S (GTP-γ-S=guanosine 5′-[thio]triphosphate) assay for G-protein coupled receptor binding based on the scintillation proximity assay principle was used, employing a cell membrane preparation from a CHO Flp-In cell line which constitutively overexpresses the human Edg-1 receptor.
A membrane preparation was obtained by standard methods from the aforedescribed CHO Flp-In cell line constitutively overexpressing the human Edg-1 receptor. Briefly, the cryopreserved cells were taken in culture and grown until confluency in T175 cell culture flasks (Becton Dickinson, cat. no. 35 5001). Cell culture was stopped by washing with calcium-free phosphate-buffered saline (PBS; Gibco, cat. no. 14190), and cells were harvested with a rubber-policeman in 4° C. cold and calcium-free PBS supplemented with a protease inhibitor cocktail (complete protease inhibitor; Roche, cat. no. 1697498; 1 tablet per 50 ml) and subsequently centrifuged at 4° C. for 15 min at 1100×g (Heraeus Minifuge T). For cell lysis, the pellet was resuspended in a 4° C. cold hypotonic buffer consisting of 5 mM HEPES (Sigma-Aldrich, cat. no. H-0981), 1 mM EDTA (disodium salt; Merck, cat. no. 8418) supplemented with protease inhibitor cocktail (as above) in which cells were stored for another 15 min on ice. After lysis, cells were centrifuged at 4° C. for 10 min at 400×g (Heraeus Minifuge T). The pellet was disrupted in a Dounce homogenizer, diluted with the supernatant of the previous centrifugation and subsequently centrifuged at 4° C. for 10 min at 500×g (Heraeus Minifuge T) in order to separate nuclei and still intact cells from the membranes mainly present in the supernatant. The supernatant was then diluted in hypotonic buffer and centrifuged (Beckmann, Avanti J251) at approximately 18600×g for 2 h at 4° C. After centrifugation, the membrane pellet was resuspended in a storing buffer consisting of 20 mM HEPES; 150 mM NaCl (Merck, cat. no. 6400), 1 mM EDTA (as above) supplemented with protease inhibitor cocktail (as above). The membrane preparation was aliquoted and stored at −80° C. Protein concentration of the membrane preparation was determined in a sample by means of a commercial protein assay (Bio-Rad, DC Protein Assay, cat. nos. 500-0113, 500-0114, 500-0115).
The Edg-1 membrane preparation obtained in (b) was employed in a commercially available scintillation proximity assay (SPA) kit for G-protein coupled receptor binding from Amersham Biosciences/GE Healthcare (code RPNQ0210), in which ligand-induced binding of ^35S-radiolabeled GTP-γ-S to the receptor-containing membrane, which is bound to scintillation beads, stimulates the emission of light and allows the quantification of the in vitro activity of the Edg-1 agonistic compound. The assay was performed on a 96-well plate substantially according to the manufacturer's instructions. Before starting the experiments, scintillation beads were suspended in a reconstitution buffer consisting of Tris-HCl (pH 7.4) supplemented with 0.1% (w/v) sodium azide and subsequently diluted on ice with assay buffer (consisting of 20 mM HEPES, 100 mM NaCl, 1 mM EDTA (as above), 1 mM dithiothreitol (DTT), adjusted to pH 7.4) to a final bead concentration of 30 mg/ml.
Wells were charged with 10 μl of the specified assay buffer, 10 μl of a 100 μM guanosine diphosphate (GDP) solution, and 10 μl of a solution of the test compound in assay buffer/dimethyl sulfoxide resulting in a final concentration of the test compound of 10 μM. For the high controls, 10 μl of a solution of sphingosine-1-phosphate (S1P; Sigma, cat. no. S-9666), resulting in a final S1P concentration of 10 μM, and for the low controls 10 μl of assay buffer, was added into the respective wells instead of the solution of the test compound. All wells contained equivalent amounts of dimethyl sulfoxide. […]
Take `Cc1cc(-c2nc3c(CC(C)C)nc(Cc4ccc(Cl)cc4)nc3o2)cc(C)c1OCC(=O)O` [Example 7, {4-[5-(4-Chlorobenzyl)-7-isobutyloxazolo[5,4-d]pyrimidin-2-yl]-2,6-dimethylphenoxy}acetic acid]: the activation at 10 µM was 38%.

On to `CCCc1nc(Oc2cc(F)ccc2F)nc2oc(-c3cc(C)c(OCC(=O)O)c(C)c3)nc12` [Example 1, {4-[5-(2,5-Difluorophenoxy)-7-propyloxazolo[5,4-d]pyrimidin-2-yl]-2,6-dimethylphenoxy}acetic acid], for which the activation at 10 µM came out at 94%.

For the compound `Cc1cc(-c2nc3c(CC(C)C)nc(OCCC(F)(F)F)nc3o2)cc(C)c1OCC(=O)O` [Example 4, {4-[7-Isobutyl-5-(3,3,3-trifluoropropoxy)oxazolo[5,4-d]pyrimidin-2-yl]-2,6-dimethylphenoxy}acetic acid], the activation at 10 µM worked out at 106%.

As for `Cc1cc(-c2nc3c(CC(C)C)nc(Oc4ccccc4F)nc3o2)cc(C)c1OCC(=O)O` [Example 3, {4-[5-(2-Fluorophenoxy)-7-isobutyloxazolo[5,4-d]pyrimidin-2-yl]-2,6-dimethylphenoxy}acetic acid], the activation at 10 µM was 92%.

Turning to `CCCc1nc(Oc2cccc(Cl)c2)nc2oc(-c3cc(C)c(OCC(=O)O)c(C)c3)nc12` [Example 6, {4-[5-(3-Chlorophenoxy)-7-propyloxazolo[5,4-d]pyrimidin-2-yl]-2,6-dimethylphenoxy}acetic acid], the activation at 10 µM came out at 118%.

As to `Cc1cc(-c2nc3c(CC(C)C)nc(Cc4ccccc4)nc3o2)cc(C)c1OCC(=O)O` [Example 8, [4-(5-Benzyl-7-isobutyloxazolo[5,4-d]pyrimidin-2-yl)-2,6-dimethylphenoxy]acetic acid], the activation at 10 µM amounted to 98%.

For the compound `Cc1cc(-c2nc3c(CC(C)C)nc(Oc4cccc(Cl)c4)nc3o2)cc(C)c1OCC(=O)O` [Example 5, {4-[5-(3-Chlorophenoxy)-7-isobutyloxazolo[5,4-d]pyrimidin-2-yl]-2,6-dimethylphenoxy}acetic acid], the activation at 10 µM came to 86%.

Consider `Cc1cc(-c2nc3c(C(C)C)nc(Cc4ccc(Cl)cc4)nc3o2)cc(C)c1OCC(=O)O` [Example 9, {4-[5-(4-Chlorobenzyl)-7-isopropyloxazolo[5,4-d]pyrimidin-2-yl]-2,6-dimethylphenoxy}acetic acid], for which the activation at 10 µM was found to be 90%.

On to `CCCc1nc(OCCC(F)(F)F)nc2oc(-c3cc(C)c(OCC(=O)O)c(C)c3)nc12` [Example 2, {2,6-Dimethyl-4-[7-propyl-5-(3,3,3-trifluoropropoxy)oxazolo[5,4-d]pyrimidin-2-yl]phenoxy}acetic acid], for which the activation at 10 µM worked out at 97%.
